Reference: patent publication US20250109127A1, “METHODS OF USE OF PHENOXYPROPYLAMINE COMPOUNDS TO TREAT DEPRESSION” (Minerva Neurosciences, Inc., priority 2013, published 2025)
“And” between values parts separate entries of the source, which are not always exact repeats. Identical values can stand only once. Counter-ions that a name gives are not always drawn.

Tested on: norepinephrin release in the rat prefrontal cortex
Assay: Microdialysis: norepinephrine release in prefrontal cortex after I.P. administration
Assay type: in vivo
Conditions: for NOREPINEPHRIN in dialysate, individual animals / NOREPINEPHRIN in dialysate, MEAN: SON-117 0.1 mg/kg I.P.; for NOREPINEPHRIN in dialysate, individual animals: hydrochloride, 0.1 mg/kg; for NOREPINEPHRIN (% of respective basal) MEAN / NE concentrations in prefrontal cortex, significant slight increase: SON-117 0.3 mg/kg I.P.; for NOREPINEPHRIN (% of respective basal) MEAN: n = 8
Description: The aim of the study was to evaluate, using microdialysis, the effects of an intraperitoneal (I.P.) administration in rats of three different doses of SON-117 on dopamine and its metabolites, serotonin and its metabolite (5-HIAA), and norepinephrine levels in prefrontal cortex.
Thirty-two adult male Wistar rats were used for the whole study (4 groups of eight animals planned for the study, Table 1).
Surgery was performed on rats weighing about 300 g at the beginning of the experiments. Rats were anaesthetized with Ketamine (50 mg/kg) & Xylazine (15 mg/kg) by intramuscular administration. The animals were placed in a stereotaxic apparatus in the flat-skull position at a constant setting of −3.3 mm between ear bars and the incisor bar. The animals were treated with a local anesthesic (xylocaine 1%, Astra Zeneca) and an analgesic (Temgesic, from Schering Plough, 0.05 mg/kg, s.c.). A rostrocaudal midline incision was made with a lancet to expose the dorsal skull surface. The “stereotaxic zero” was defined by the Bregma in accordance with Paxinos and Watson's atlas (1986). A hole was drilled in the skull with a drill and the meninges were pierced with a sterile needle to implant a CMA12 guide cannula which later received the dialysis probe.
Coordinates used for implanting guide cannula in prefrontal cortex from Bregma were anteroposterior 3.7 mm, mediolateral 0.8 mm, and dorsoventral −2 mm (top of the probe was at −5 mm). The guide cannula was fixed to the skull with two stainless steel screws (1.88 mm outside diameter) anchored. An application of dental cement was added. A plastic collar allowed each animal to be tethered to a Swivel assembly of the CMA 120 awake animal system. Following surgery, rats were kept in individual cages and allowed to recover for a minimum of 3-5 days before the experimentation. The rats were handled and put in plastic bowl for 10 min at least every day to habituate the animals to their new environment for the dialysis. An I.P. administration with saline was also performed every day.
Dialysis probes (CMA12/3 mm, membrane, 20 kD cut-off, Carnegie Medicine, Stockholm, Sweden), were carefully washed before inserting into the guide cannula. The wash was performed with the artificial cerebrospinal fluid (aCSF) medium (NaCl 147 mM, KCl 2.7 mM, CaCl2 1.2 mM, MgCl2 0.85 mM) at room temperature. The dialysis system was then equilibrated at 20° C. at a perfusion rate of 1 μl/min with a Carnegie pump (CMA100). All catheters (FEP tubing, internal volume of 1.2 μl/10 cm, and tubing adaptors) used for microdialysis were treated in the same conditions.
The probes duly prepared were inserted into the guide cannula and the CMA120 Swivel assembly secured to the animal using a plastic collar. Flow through the dialysis probe with aCSF was maintained at a rate of 1 μl/min during the whole experimentation. The first four fractions (corresponding to 2 hours) were discarded to avoid the effects of parenchymal disturbance and to ensure that an approximate steady-state level was reached. Fractions were then collected over a period of 8.5 h during which time the animals remained quiet. The dialysates were automatically collected with an autosampler (microfraction collector CMA 140, Carnegie Medicin) and stored at −80° C. until analysis. […] Perfusion was then maintained for 7 hours with aCSF. The dialysates (30 μl) were collected into 300 μl vials, transferred into dry ice and then kept frozen (−80° C.) until analysis. Frozen samples were shipped to a partner for analysis. At the end of the microdialysis study, a PBS with colored ink was perfused through the probe in order to visualize the dialyzed area.
Catecholamine assay: Concentrations of dopamine, DOPAC, HVA, 5-HIAA, 5-HT, and norepinephrin were determined for each sample by HPLC coupled with electrochemical detection. […]

## Cc1nnc(-c2cc3c(OC[C@@H](O)CN4CCC(c5ccc(Cl)c(Cl)c5)CC4)cccc3o2)o1 [SON-117, (S)-1-(4-(3,4-dichlorophenyl)piperidino)-3-(2-(5-methyl-1,3,4-oxadiazol-2-yl)benzo(b)furan-4-yloxy)-2-propanol hydrochloride]
T1 h 30-T2 h
  NOREPINEPHRIN in dialysate, individual animals: 62.36 % of respective basal and 99.69 % of respective basal and 70.34 % of respective basal and 106.16 % of respective basal and 81.71 % of respective basal and 48.44 % of respective basal and 107.26 % of respective basal and 74.26 % of respective basal
  NOREPINEPHRIN (% of respective basal) MEAN: 95.77 % of respective basal
T1 h-T1 h 30
  NOREPINEPHRIN in dialysate, MEAN: 91.81 % of respective basal
  NOREPINEPHRIN in dialysate, individual animals: 76.18 % of respective basal and 103.4 % of respective basal and 76.89 % of respective basal and 121.08 % of respective basal and 91.95 % of respective basal and 79.30 % of respective basal and 109.47 % of respective basal and 76.21 % of respective basal
  NOREPINEPHRIN (% of respective basal) MEAN: 100.55 % of respective basal
T2 h 30-T3 h
  NOREPINEPHRIN in dialysate, MEAN: 79.52 % of respective basal
  NOREPINEPHRIN in dialysate, individual animals: 73.33 % of respective basal and 70.54 % of respective basal and 58.97 % of respective basal and 74.27 % of respective basal and 104.33 % of respective basal and 81.47 % of respective basal and 116.2 % of respective basal and 57.05 % of respective basal
  NOREPINEPHRIN (% of respective basal) MEAN: 106.82 % of respective basal
T2 h-T2 h 30
  NOREPINEPHRIN in dialysate, MEAN: 78.83 % of respective basal
  NOREPINEPHRIN in dialysate, individual animals: 66.69 % of respective basal and 98.72 % of respective basal and 65.78 % of respective basal and 70.31 % of respective basal and 92.44 % of respective basal and 49.48 % of respective basal and 109.29 % of respective basal and 77.91 % of respective basal
  NOREPINEPHRIN (% of respective basal) MEAN: 100.26 % of respective basal
T3 h 30-T4 h
  NOREPINEPHRIN in dialysate, MEAN: 86.32 % of respective basal
  NOREPINEPHRIN in dialysate, individual animals: 91.02 % of respective basal and 105.19 % of respective basal and 59.70 % of respective basal and 76.69 % of respective basal and 123.13 % of respective basal and 96.82 % of respective basal and 105.05 % of respective basal and 32.98 % of respective basal
  NOREPINEPHRIN (% of respective basal) MEAN: 128.69 % of respective basal
T3 h-T3 h 30
  NOREPINEPHRIN in dialysate, MEAN: 86.82 % of respective basal
  NOREPINEPHRIN in dialysate, individual animals: 152.99 % of respective basal and 92.11 % of respective basal and 58.83 % of respective basal and 77.12 % of respective basal and 91.45 % of respective basal and 56.94 % of respective basal and 113.71 % of respective basal and 51.43 % of respective basal
  NOREPINEPHRIN (% of respective basal) MEAN: 116.32 % of respective basal
T4 h 30-T5 h
  NOREPINEPHRIN in dialysate, MEAN: 109.54 % of respective basal
  NOREPINEPHRIN in dialysate, individual animals: 204.20 % of respective basal and 144.74 % of respective basal and 38.63 % of respective basal and 124.67 % of respective basal and 96.8 % of respective basal and 102.84 % of respective basal and 104.62 % of respective basal and 59.86 % of respective basal
  NOREPINEPHRIN (% of respective basal) MEAN: 125.81 % of respective basal
T4 h-T4 h 30
  NOREPINEPHRIN in dialysate, MEAN: 111.29 % of respective basal
  NOREPINEPHRIN in dialysate, individual animals: 220.91 % of respective basal and 88.73 % of respective basal and 75.17 % of respective basal and 90.11 % of respective basal and 112.61 % of respective basal and 91.91 % of respective basal and 116.00 % of respective basal and 94.90 % of respective basal
  NOREPINEPHRIN (% of respective basal) MEAN: 119.37 % of respective basal
T5 h 30-T6 h
  NOREPINEPHRIN in dialysate, MEAN: 93.44 % of respective basal
  NOREPINEPHRIN in dialysate, individual animals: 159.66 % of respective basal and 111.49 % of respective basal and 76.32 % of respective basal and 79.52 % of respective basal and 94.09 % of respective basal and 72.17 % of respective basal and 101.35 % of respective basal and 52.95 % of respective basal
  NOREPINEPHRIN (% of respective basal) MEAN: 135.41 % of respective basal
T5 h-T5 h 30
  NOREPINEPHRIN in dialysate, MEAN: 94.69 % of respective basal
  NOREPINEPHRIN in dialysate, individual animals: 188.91 % of respective basal and 96.57 % of respective basal and 69.39 % of respective basal and 78.76 % of respective basal and 94.15 % of respective basal and 68.42 % of respective basal and 102.42 % of respective basal and 58.91 % of respective basal
  NOREPINEPHRIN (% of respective basal) MEAN: 124.93 % of respective basal
T6 h 30-T7 h
  NOREPINEPHRIN in dialysate, MEAN: 117.60 % of respective basal
  NOREPINEPHRIN (% of respective basal) MEAN: 140.96 % of respective basal
T6 h-T6 h 30
  NOREPINEPHRIN in dialysate, MEAN: 89.68 % of respective basal
  NOREPINEPHRIN in dialysate, individual animals: 196.16 % of respective basal and 73.01 % of respective basal and 27.50 % of respective basal and 79.85 % of respective basal and 96.77 % of respective basal and 85.56 % of respective basal
  NOREPINEPHRIN (% of respective basal) MEAN: 137.68 % of respective basal
T-30 min-T0 (pre-dose)
  NOREPINEPHRIN in dialysate, MEAN: 91.33 % of respective basal
T-1 h 30-T-1 h (pre-dose)
  NOREPINEPHRIN in dialysate, MEAN: 109.41 % of respective basal
T-1 h-T-30 min (pre-dose)
  NOREPINEPHRIN in dialysate, MEAN: 99.26 % of respective basal
SON-117 0.1 mg/kg vs citalopram 10 mg/kg, at 4.5 h and 7 h
  levels of NE compared to the citalopram treated group (two-way ANOVA, significant): higher
T0-T30 min
  NOREPINEPHRIN (% of respective basal) MEAN: 109.06 % of respective basal
T30-T1 h
  NOREPINEPHRIN (% of respective basal) MEAN: 104.15 % of respective basal
T-30 min-T0 (before administration)
  NOREPINEPHRIN (% of respective basal) MEAN: 94.72 % of respective basal
T-1 h 30-T-1 h (before administration)
  NOREPINEPHRIN (% of respective basal) MEAN: 105.37 % of respective basal
T-1 h-T-30 min (before administration)
  NOREPINEPHRIN (% of respective basal) MEAN: 99.90 % of respective basal
At 3.5 h
  NE concentrations in prefrontal cortex, significant slight increase: 117%
From 4.5 h to 7 h
  NE concentrations in prefrontal cortex, significant slight increase: 128%
SON-117 0.3 mg/kg vs citalopram 10 mg/kg, at 3.5 h, 4 h, 4.5 h, 5 h, 5.5 h, 6 h and 7 h
  levels of NE compared to the citalopram treated group (two-way ANOVA, significant): higher
SON-117 3 mg/kg IP
  NE dialysate levels vs mean pre-administration value: no statistically significant differences
SON-117 3 mg/kg vs citalopram 10 mg/kg, at 1.5 h and 3.5 h
  levels of NE compared to the citalopram treated group (two-way ANOVA, significant): higher
SON-117, three doses tested, 7 h after administration
  release of NE, maximum increase: 129%
